Entries after “also recorded” stand apart in the source; their conditions may differ. Ends that are not written are not given here.
How the values were obtained:
microorganisms [1] = assay: Peptide activities: binding, antimicrobial, growth or phenotype altering (Table 8)
Source text: In certain embodiments, peptides described herein can have multiple activities. Thus for example, a peptide can have both binding/targeting activity and antimicrobial activity. Such peptides can be used, e.g., in a chimeric construct, for any or all of these properties. Thus, for example, a peptide designated “B” in Table 8 can be used as a targeting peptide. If it is also designated G or M it can also be used for antimicrobial activity.

bacteria = assay: Binding of targeting peptides to microorganisms (Table 3); details: preferably 1x PBS; for Target(s) (microorganisms bound by the targeting peptide) / Target(s) (microorganism bound by the targeting peptide): peptide binding in aqueous buffers that varied depending on peptide solubility
microorganisms [2] = assay: Morphology, biofilm and growth disruption by peptides (Table 5); assay type: cell-based; design: key: A: Peptide aggregates; B: Less hyphal formation; Clumps; Diffuse clumps and small polyps; F: Diffuse growth; H: Thin; I: Growth inhibition; Microcolony formation; Rippled; Small polyps; Thick; W: Halo formation on top, microlonies on bottom
Source text: In certain embodiments peptides that induce alterations in phenotype or other biological activities can also be used as antimicrobial effector moieties.

[3] = microorganism the targeting peptide binds, binding in aqueous buffers that varied with peptide solubility

PF-392 (DPAGCNDIVRKYCK; Peptide with targeting and/or antimicrobial activity)
Activities (microorganisms [1]): G B | Target(s) (microorganisms bound by the targeting peptide) (bacteria): S. epidermidis; also recorded: B. subtilis; also recorded: S. pneumoniae; also recorded: C. jeikeium; also recorded: C. jejuni | Organism, effect (microorganisms [2]; C. jejuni): C. jejuni (A) | Organism, effect (microorganisms [2]; E. faecalis): E. faecalis (A) | Organism, effect (microorganisms [2]; MRSA): MRSA (S)

PF-560 (FGNPFRGFTLAMEADFKKRK; Peptide with targeting and/or antimicrobial activity)
Activities (microorganisms [1]): G B | Target(s) (microorganisms bound by the targeting peptide) (bacteria): S. epidermidis; also recorded: M. luteus; also recorded: E. coli; also recorded: S. pneumoniae; also recorded: C. jeikeium; also recorded: C. jejuni | Organism, effect (morphology, biofilm and growth disruption) (microorganisms [2]; B. subtilis): B. subtilis (D) | Organism, effect (morphology, biofilm and growth disruption) (microorganisms [2]; C. jejuni): C. jejuni (A) | Organism, effect (morphology, biofilm and growth disruption) (microorganisms [2]; MRSA): MRSA (C) | Organism, effect (morphology, biofilm and growth disruption) (microorganisms [2]; S. pneumoniae): S. pneumoniae (R)

PF-623 (chain 1 VLFAVYLGALDWLFSWLTQKM; chain 2 VLFAVYLGALDWLFSWLTQKM; Peptide with targeting and/or antimicrobial activity)
Activities (microorganisms [1]): G B | Target(s) (microorganism bound by the targeting peptide) (bacteria): S. epidermidis and P. aeruginosa and MRSA and S. pneumoniae and E. faecalis and C. jeikeium | Organism, effect (morphology, biofilm and growth disruption) (microorganisms [2]; C. jeikeium): C. jeikeium (R) | Organism, effect (morphology, biofilm and growth disruption) (microorganisms [2]; E. faecalis): E. faecalis (D) | Organism, effect (morphology, biofilm and growth disruption) (microorganisms [2]; MRSA): MRSA (D) | Organism, effect (morphology, biofilm and growth disruption) (microorganisms [2]; S. epidermidis): S. epidermidis (M) | Organism, effect (morphology, biofilm and growth disruption) (microorganisms [2]; S. pneumoniae): S. pneumoniae (D)

PF-462 (KNKTDTL; Peptide with targeting and/or antimicrobial activity)
Activities (microorganisms [1]): G B | Target(s) (microorganisms bound by the targeting peptide) (bacteria): E. faecalis; also recorded: C. jeikeium | Organism, effect (morphology, biofilm and growth disruption) (microorganisms [2]; S. pneumoniae): S. pneumoniae (H)

PF-514 (QRFYKLFYHIDLTNEQALKLFQVK; Peptide with targeting and/or antimicrobial activity)
Activities (microorganisms [1]): G B | Target(s) (microorganisms bound by the targeting peptide) (bacteria): S. epidermidis and E. coli and P. aeruginosa and C. albicans and MRSA and S. pneumoniae and E. faecalis and C. jeikeium | Organism, effect (morphology, biofilm and growth disruption) (microorganisms [2]; E. coli): E. coli (R) | Organism, effect (morphology, biofilm and growth disruption) (microorganisms [2]; E. faecalis): E. faecalis (C) | Organism, effect (morphology, biofilm and growth disruption) (microorganisms [2]; S. epidermidis): S. epidermidis (C) | Organism, effect (morphology, biofilm and growth disruption) (microorganisms [2]; S. pneumoniae): S. pneumoniae (M)

PF-737 (chain 1 KSSGSSASASSTAGGSSSK; chain 2 KSSGSSASASSTAGGSSSK; Peptide with targeting and/or antimicrobial activity)
Activities (microorganisms [1]): G B | Target(s) (microorganism bound by the targeting peptide) (bacteria): S. epidermidis; also recorded: S. pneumoniae | Organism, effect (morphology, biofilm and growth disruption) (microorganisms [2]; S. pneumoniae): S. pneumoniae (D)

PF-554 (AKNFLTRTAEEIGEQAVREGNINGP; Peptide with targeting and/or antimicrobial activity)
Activities (microorganisms [1]): G B | Target(s) (microorganisms bound by the targeting peptide) (bacteria): S. pneumoniae | Organism, effect (morphology, biofilm and growth disruption) (microorganisms [2]; B. subtilis): B. subtilis (D)

PF-C098 (PETKGKVSAFVFGIVVANVIAVVYILYMLREIGIIQ; Peptide with targeting and/or antimicrobial activity)
Activities (microorganisms [1]): G B | Target(s) (microorganism bound by the targeting peptide) (bacteria): A. naeslundii; also recorded: F. nucleatum; also recorded: P. gingivalis; also recorded: S. mutans; also recorded: T. denticola | Organism, effect (morphology, biofilm and growth disruption) (microorganisms [2]; F. nucleatum): F. nucleatum (T) | Organism, effect (morphology, biofilm and growth disruption) (microorganisms [2]; S. mutans): S. mutans (F)

PF-456 (TCVKPRTIN; Peptide with targeting and/or antimicrobial activity)
Activities (microorganisms [1]): G B | Target(s) (microorganisms bound by the targeting peptide) (bacteria): C. albicans and MRSA and E. faecalis and C. jeikeium and C. jejuni | Organism, effect (morphology, biofilm and growth disruption) (microorganisms [2]; C. jejuni): C. jejuni (A) | Organism, effect (morphology, biofilm and growth disruption) (microorganisms [2]; E. faecalis): E. faecalis (A)

PF-528 (LVDVVVLIRRHLPKSCS-NH2)
Activities (microorganisms [1]): G B | Target(s) (microorganisms bound by the targeting peptide) (bacteria): S. epidermidis and P. aeruginosa and C. albicans and MRSA and S. pneumoniae and E. faecalis | Organism, effect (morphology, biofilm and growth disruption) (microorganisms [2]; C. albicans): C. albicans (C) | Organism, effect (morphology, biofilm and growth disruption) (microorganisms [2]; E. coli): E. coli (H) | Organism, effect (morphology, biofilm and growth disruption) (microorganisms [2]; MRSA): MRSA (H) | Organism, effect (morphology, biofilm and growth disruption) (microorganisms [2]; S. epidermidis): S. epidermidis (H) | Organism, effect (morphology, biofilm and growth disruption) (microorganisms [2]; S. pneumoniae): S. pneumoniae (R)

PF-519 (YLVYSGVLATAAAF-NH2)
Activities (microorganisms [1]): G B | Target(s) (microorganisms bound by the targeting peptide) (bacteria): M. luteus; also recorded: E. faecalis; also recorded: C. jeikeium | Organism, effect (morphology, biofilm and growth disruption) (microorganisms [2]; E. coli): E. coli (R) | Organism, effect (morphology, biofilm and growth disruption) (microorganisms [2]; E. faecalis): E. faecalis (C) | Organism, effect (morphology, biofilm and growth disruption) (microorganisms [2]; MRSA): MRSA (C) | Organism, effect (morphology, biofilm and growth disruption) (microorganisms [2]; S. pneumoniae): S. pneumoniae (S)

PF-024 (DLRKAK; Peptide with targeting and/or antimicrobial activity)
Activities (microorganisms [1]): G B | Target(s) (bacteria; [3]): M. luteus and C. albicans and MRSA and E. faecalis and C. jeikeium | Organism, effect (microorganisms [2]; MRSA): MRSA (M) | Organism, effect (microorganisms [2]; S. epidermidis): S. epidermidis (D)

PF-587 (ASGKYQSYLLNVYVDSKKDRLDIFDKLKAKAKFVL; Peptide with targeting and/or antimicrobial activity)
Activities (microorganisms [1]): G B | Target(s) (microorganisms bound by the targeting peptide) (bacteria): S. epidermidis and M. luteus and E. coli and MRSA and S. pneumoniae and E. faecalis and C. jeikeium | Organism, effect (morphology, biofilm and growth disruption) (microorganisms [2]; S. pneumoniae): S. pneumoniae (C)

PF-470 (PYSDSYATRPHWEQHRAR; Peptide with targeting and/or antimicrobial activity)
Activities (microorganisms [1]): G B | Target(s) (microorganisms bound by the targeting peptide) (bacteria): M. luteus and E. coli and MRSA and E. faecalis and C. jeikeium and C. jejuni | Organism, effect (morphology, biofilm and growth disruption) (microorganisms [2]; C. jejuni): C. jejuni (A) | Organism, effect (morphology, biofilm and growth disruption) (microorganisms [2]; E. faecalis): E. faecalis (A)

PF-036 (ILNRLSRIVSNEVTSLIYSLK; Peptide with targeting and/or antimicrobial activity)
Activities (microorganisms [1]): G B | Target(s) (bacteria; [3]): S. epidermidis and M. luteus and P. mirabilis and E. coli and C. albicans and MRSA and S. pneumoniae and C. jejuni | Organism, effect (microorganisms [2]; C. jeikeium): C. jeikeium (A) | Organism, effect (microorganisms [2]; M. luteus): M. luteus (A) | Organism, effect (microorganisms [2]; MRSA): MRSA (R) | Organism, effect (microorganisms [2]; S. epidermidis): S. epidermidis (S)

PF-625 (chain 1 SDSTNNARTRKKARDVTTKDIDK; chain 2 SDSTNNARTRKKARDVTTKDIDK; Peptide with targeting and/or antimicrobial activity)
Activities (microorganisms [1]): G B | Target(s) (microorganism bound by the targeting peptide) (bacteria): S. epidermidis; also recorded: M. luteus; also recorded: S. pneumoniae; also recorded: C. jeikeium | Organism, effect (morphology, biofilm and growth disruption) (microorganisms [2]; S. pneumoniae): S. pneumoniae (H)

PF-011 (MFCYYKQHKGDNFSIEEVKNIIADNEMKVN; Peptide with targeting and/or antimicrobial activity)
Activities (microorganisms [1]): G B | Target(s) (bacteria; [3]): M. luteus; also recorded: E. coli; also recorded: P. aeruginosa; also recorded: S. pneumoniae; also recorded: C. jeikeium | Organism, effect (microorganisms [2]; C. jeikeium): C. jeikeium (C) | Organism, effect (microorganisms [2]; MRSA): MRSA (R)

PF-381 (QGANPCQQVGFTVNDPDCRLAKTV; Peptide with targeting and/or antimicrobial activity)
Activities (microorganisms [1]): G B | Target(s) (bacteria; microorganism bound by the targeting peptide, binding in aqueous buffers chosen by peptide solubility): E. coli; also recorded: P. aeruginosa; also recorded: C. jejuni | Organism, effect (microorganisms [2]; E. coli): E. coli (R) | Organism, effect (microorganisms [2]; E. faecalis): E. faecalis (C) | Organism, effect (microorganisms [2]; MRSA): MRSA (C) | Organism, effect (microorganisms [2]; S. epidermidis): S. epidermidis (C)

PF-021 (FSLNFSKQKYVTVN; Peptide with targeting and/or antimicrobial activity)
Activities (microorganisms [1]): G B | Target(s) (bacteria; [3]): S. epidermidis; also recorded: M. luteus; also recorded: P. mirabilis; also recorded: E. coli; also recorded: C. albicans; also recorded: E. faecalis; also recorded: C. jeikeium | Organism, effect (microorganisms [2]; C. jeikeium): C. jeikeium (R) | Organism, effect (microorganisms [2]; M. luteus): M. luteus (A) | Organism, effect (microorganisms [2]; MRSA): MRSA (R) | Organism, effect (microorganisms [2]; S. epidermidis): S. epidermidis (A)

PF-466 (VRKSDQ; Peptide with targeting and/or antimicrobial activity)
Activities (microorganisms [1]): G B | Target(s) (microorganisms bound by the targeting peptide) (bacteria): MRSA and C. jeikeium and C. jejuni | Organism, effect (morphology, biofilm and growth disruption) (microorganisms [2]; S. pneumoniae): S. pneumoniae (H)

PF-445 (ASMTKRLKLAMSKV; Peptide with targeting and/or antimicrobial activity)
Activities (microorganisms [1]): G B | Target(s) (microorganisms bound by the targeting peptide) (bacteria): M. luteus; also recorded: S. pneumoniae; also recorded: C. jeikeium | Organism, effect (morphology, biofilm and growth disruption) (microorganisms [2]; S. pneumoniae): S. pneumoniae (M)

PF-621 (chain 1 PPSSFLV; chain 2 PPSSFLV; Peptide with targeting and/or antimicrobial activity)
Activities (microorganisms [1]): G B | Target(s) (microorganism bound by the targeting peptide) (bacteria): S. epidermidis; also recorded: C. albicans | Organism, effect (morphology, biofilm and growth disruption) (microorganisms [2]; E. faecalis): E. faecalis (H) | Organism, effect (morphology, biofilm and growth disruption) (microorganisms [2]; S. pneumoniae): S. pneumoniae (I)

PF-614 (GLDIYA; Peptide with targeting and/or antimicrobial activity)
Activities (microorganisms [1]): G B | Target(s) (microorganism bound by the targeting peptide) (bacteria): S. epidermidis; also recorded: E. coli; also recorded: C. jeikeium | Organism, effect (morphology, biofilm and growth disruption) (microorganisms [2]; C. jejuni): C. jejuni (R) | Organism, effect (morphology, biofilm and growth disruption) (microorganisms [2]; E. faecalis): E. faecalis (A) | Organism, effect (morphology, biofilm and growth disruption) (microorganisms [2]; S. epidermidis): S. epidermidis (M) | Organism, effect (morphology, biofilm and growth disruption) (microorganisms [2]; S. pneumoniae): S. pneumoniae (R)
